Consider 25 compounds from patent US20040054182A1, “1h-imidazopyridine derivatives” (priority 2000, published 2004).

Where a name gives a salt, the structure may show the parent alone.

Regarding `c1ccc(-c2nc3c(-c4ccco4)nc4ccccc4c3n2CCC2CCNCC2)cc1`, the melting point lay within 224.5 to 225.5 °C.

Regarding `FC(F)(F)c1nc2cc(Cl)ccc2c2c1nc(-c1cccs1)n2CCC1CCNCC1` (as salt: trifluoroacetate) (hydrate or solvate) [Example 77, 7-Chloro-1-[2-(4-piperidyl)ethyl]-2-(2-thienyl)-4-trifluoromethyl-1H-imidazo-[4,5-c]quinoline], the melting point was 217 to 219 °C (dec.).

With `Cc1cccc2c1nc(C(F)(F)F)c1nc(-c3ccc[nH]3)n(CCC3CCNCC3)c12` (as salt: trifluoroacetate) (hydrate or solvate) [Example 94, 6-Methyl-1-[2-(4-piperidyl)ethyl]-2-(2-pyrrolyl)-4-trifluoromethyl-1H-imidazo-[4,5-c]quinoline], the melting point is 233 to 234 °C (dec.).

With `O=C(CCl)NCCn1c(-c2ccc[nH]2)nc2c(C(F)(F)F)nc3ccccc3c21` [Example 125, 2-chloro-N-[2-[2-(2-pyrrolyl)-4-trifluoromethyl-1H-imidazo-[4,5-c]quinolin-1-yl]ethyl]acetamide], the melting point is 234 to 235 °C.

Take `O=C(O)c1nc2ccccc2c2c1nc(-c1ccccc1)n2CCC1CCNCC1` (as salt: trifluoroacetate) (hydrate or solvate) [Example 118, 2-Phenyl-1-[2-(4-piperidyl)ethyl]-1H-imidazo[4,5-c]quinoline-4-carboxylic acid]: the melting point was in the range of 212 to 215 °C.

Take `FC(F)(F)c1nc2cc(Cl)ccc2c2c1nc(C1CCCCC1)n2CCC1CCNCC1` (as salt: trifluoroacetate) [Example 79, 7-Chloro-2-cyclohexyl-1-[2-(4-piperidyl)ethyl]-4-trifluoromethyl-1H-imidazo-[4,5-c]quinoline]: the melting point is 236 to 237 °C (dec.).

Take `Cc1cccc2c1nc(C(F)(F)F)c1nc(-c3ncc[nH]3)n(CCC3CCNCC3)c12` (as salt: trifluoroacetate) (hydrate or solvate) [Example 96, 2-(2-1H-Imidazolyl)-6-methyl-1-[2-(4-piperidyl)ethyl]-4-trifluoromethyl-1H-imidazo[4,5-c]quinoline]: the melting point is 306 to 308 °C (dec.).

Consider `Cc1ccc2c(c1)nc(C(F)(F)F)c1nc(-c3ncc[nH]3)n(CCC3CCNCC3)c12` (as salt: trifluoroacetate) (hydrate or solvate) [Example 89, 2-(2-1H-Imidazolyl)-7-methyl-1-[2-(4-piperidyl)ethyl]-4-trifluoromethyl-1H-imidazo[4,5-c]quinoline], for which the melting point was 303 to 305 °C (dec.).

Consider `FC(F)(F)c1nc2cc(Cl)ccc2c2c1nc(-c1nccs1)n2CCC1CCNCC1` [Example 74, 7-Chloro-1-[2-(4-piperidyl)ethyl]-2-(2-thiazolyl)-4-trifluoromethyl-1H-imidazo-[4,5-c]quinoline], for which the melting point was 232.5 to 234 °C (dec.).

With `FC(F)(F)c1nc2cc(Cl)ccc2c2c1nc(C1CCCC1)n2CCC1CCNCC1` (as salt: trifluoroacetate), the melting point is 246 to 248 °C (dec.).

Take `Cc1cccc2c1nc(C(F)(F)F)c1nc(-c3ccco3)n(CCC3CCNCC3)c12` (as salt: trifluoroacetate) (hydrate or solvate): the melting point was 232 to 234 °C (dec.).

In the case of `FC(F)(F)c1nc2ccccc2c2c1nc(-c1ccco1)n2CCC1CCNCC1` (as salt: trifluoroacetate) (hydrate or solvate), the melting point is 133.5 to 136.5 °C (dec.).

`FC(F)(F)c1nc2ccccc2c2c1nc(-c1nccs1)n2CCC1CCNCC1` [Example 70, 1-[2-(4-Piperidyl)ethyl]-2-(2-thiazolyl)-4-trifluoromethyl-1H-imidazo[4,5-c]-quinoline]: the melting point was in the range of 199 to 200 °C.

On to `Cc1cccc2c1nc(C(F)(F)F)c1nc(-c3ccccc3)n(CCC3CCNCC3)c12` (as salt: trifluoroacetate) [Example 93, 6-Methyl-2-phenyl-1-[2-(4-piperidyl)ethyl]-4-trifluoromethyl-1H-imidazo-[4,5-c]quinoline], for which the melting point is 218 to 219 °C (dec.).

For `NCC(=O)NCCn1c(-c2ccc[nH]2)nc2c(C(F)(F)F)nc3ccccc3c21.O=C(O)/C=C/C(=O)O` [Example 131, 2-Amino-N-[2-[2-(2-pyrrolyl)-4-trifluoromethyl-1H-imidazo[4,5-c]quinolin-1-yl]ethyl]-acetamide fumarate], the melting point is 176 to 177 °C (dec.).

Compound `c1ccc(-c2nc3ccccc3c3c2nc(-c2ccccc2)n3CCC2CCNCC2)cc1` [Example 112, 2,4-Diphenyl-1-[2-(4-piperidyl)ethyl]-1H-imidazo[4,5-c]quinoline] showed a melting point of 209 to 211 °C.

Regarding `N#Cc1nc2ccccc2c2c1nc(-c1ccccc1)n2CCC1CCNCC1` (as salt: trifluoroacetate) (hydrate or solvate) [Example 117, 4-Cyano-2-phenyl-1-[2-(4-piperidyl)ethyl]-1H-imidazo[4,5-c]quinoline], the melting point was 245 to 251 °C (dec.).

Consider `FC(F)(F)c1nc2ccccc2c2c1nc(-c1ccc[nH]1)n2CCC1CCNCC1` [Example 64, 1-[2-(4-Piperidyl)ethyl]-2-(2-pyrrolyl)-4-trifluoromethyl-1H-imidazo[4,5-c]-quinoline], for which the melting point is 280 to 282.5 °C (dec.).

The compound `FC(F)(F)c1nc2ccccc2c2c1nc(C1CCCCC1)n2CCC1CCNCC1` (as salt: trifluoroacetate) [Example 71, 2-Cyclohexyl-1-[2-(4-piperidyl)ethyl]-4-trifluoromethyl-1H-imidazo[4,5-c]quinoline] came in with a melting point of 182.5 to 184 °C.

On to `CN(C)CC(=O)NCCn1c(-c2ccc[nH]2)nc2c(C(F)(F)F)nc3ccccc3c21.O=C(O)/C=C/C(=O)O` [Example 129, 2-Dimethylamino-N-[2-[2-(2-pyrrolyl)-4-trifluoromethyl-1H-imidazo[4,5-c]quinolin-1-yl]ethyl]acetamide fumarate], for which the melting point is 219 to 222 °C (dec.).

`Cc1ccc2c(c1)nc(C(F)(F)F)c1nc(-c3ccccc3)n(CCC3CCNCC3)c12` (as salt: trifluoroacetate) [Example 86, 7-Methyl-2-phenyl-1-[2-(4-piperidyl)ethyl]-4-trifluoromethyl-1H-imidazo[4,5-c]-quinoline]: the melting point was 234 to 235 °C (dec.).

Regarding `Fc1ccc2c(c1)nc(C(F)(F)F)c1nc(-c3ccco3)n(CCC3CCNCC3)c12` (as salt: trifluoroacetate) (hydrate or solvate), the melting point is 239 to 241 °C (dec.).

As for `FC(F)(F)c1nc2ccccc2c2c1nc(-c1ccccc1)n2CCC1CNCCO1` (stereo not shown) (as salt: trifluoroacetate) (hydrate or solvate) [Example 101, 1-[2-(2-Morpholinyl)ethyl]-2-phenyl-4-trifluoromethyl-1H-imidazo[4,5-c]-quinoline], the melting point was 224 to 228 °C (dec.).

For `FC(F)(F)c1nc2ccccc2c2c1nc(-c1ccccc1)n2CCC1CC2CCC(C1)N2` (stereo not shown) (as salt: trifluoroacetate), the melting point is 249 to 251 °C (dec.).

Compound `c1ccc(-c2nc3ccccc3c3c2nc(-c2ccc[nH]2)n3CCC2CCNCC2)cc1` (hydrate or solvate) [Example 113, 4-Phenyl-1-[2-(4-piperidyl)ethyl]-2-(2-pyrrolyl)-1H-imidazo[4,5-c]quinoline] came in with a melting point of 268 to 270 °C.

The melting point is the temperature, or range, at which the solid turns liquid.
